Measured values: US10377774B2 (JINAN UNIVERSITY, priority 2013, dated 2019)
Marks after values point to notes of the source that are not given here.

Columns and labels:
Kunming mice = assay: Acute toxicity test; type: in vivo; conditions: injected intraperitoneally
Procedure: Experimental method: Kunming mice were purchased from Guangdong Medical Experimental Animal Center, weighing 18-22 g, then randomly divided into several groups with 10 mice in each group. Different concentrations of VLB and vinca alkaloid dipeptide derivatives were injected intraperitoneally. Finally, the median lethal dose (LD50) was calculated according to the surviving animals.
LD50 was measured using the following formula:
LD50 (mg/kg)=The median lethal dose/body weight

[1] = system: doxorubicin-resistant hepatocellular carcinoma cell line HepG2/ADM; assay: MTT cell growth inhibition, HepG2/ADM; type: cell-based, human; conditions: MTT assay, 72 h, read-out: IC50, growth of tumor cell line
Text: (§3) Experimental method: Cell lines (human non-small-cell lung cancer cell line A549, human colon cancer cell line LOVO, human nasopharyngeal carcinoma cell line CNE-2, human liver cancer cell line HepG2, human cervical carcinoma cell line Hela, human breast cancer cell lines MCF-7 and MDA-MB-231, human gastric carcinoma cell line NCI-N87, human prostatic cancer cell lines PC-3 and DU145, human leukemia cell line K562, human melanoma cell line A375, human neuroblastoma cell line SH-SY5H, human promyelocytic leukemia cell line HL-60, 5-FU-resistant human hepatocellular carcinoma cell line BEL-7402/5-Fu, doxorubicin-resistant hepatocellular carcinoma cell line HepG2/ADM, doxorubicin-resistant human breast cancer cell lines MCF-7/ADR) at logarithmic phase were resuspended in RPMI 1640 medium (containing 10% fetal bovine serum, 100 U/mL penicillin-streptomycin). Then, 100 μL of cells (cell concentration was 5×10^5/mL) were seeded into 96 wells plate. After 24 h incubation at 37° C. with 5% CO2, tested compounds were added (the control group without compound) for an additional 72 h incubation. After that, 30 μL of MTT [3-(4,5-Dimethylthiazol-2-yl)-2,5-diphenyltetrazolium bromide] solution (5 mg/mL) was added into each well and incubated for another 4 h at 37° C. and then the formazan crystals were solubilized with 100 μL DMSO. Finally, absorbance of each well was determined at 570 nm by a microplate reader (Thermo).
(§4) The concentration required to inhibit cell growth by 50% (IC50) was calculated from survival curves.

HepG2 xenografts = HepG2 xenografts in nude mice; type: in vivo; conditions: HepG2 xenograft nude mice
Procedure: (§1) Experimental method: The MDA-MB-231 cells at logarithmic phase were digested and washed twice with PBS. Then, 100 μL cells (1×10^7) were inoculated subcutaneously on the backs of female BALB/nu/nu mice. After tumors grew to 70˜100 mm^3, the mice were divided randomly into saline group (control group), vinca alkaloids groups (VLB, CCRB, CCFN, CCXJ) and vinca alkaloid derivatives groups (JJ-CCJ, BX-CCJ, JJ-CCRB, BX-CCRB, JJ-CCFN, BX-CCFN, JJ-CCXJ and BX-CCXJ), with six mice per group. 1 mg/kg drugs were injected intraperitoneally every two days, meanwhile body weight and tumor sizes were measured. Experiment was ended after 8 times of drug administration, then tumor and organs were stripped. Tumor volumes were measured using the following formula: V=½(ab^2), whereas a refers to the longest diameter and b is the shortest diameter.
(§2) Tumor xenograft models of HepG2, LOVO, K562 and HL-60 cell lines were performed as the method described above.

[2] = system: human neuroblastoma cell line SH-SY5H; assay: MTT cell growth inhibition, SH-SY5H; type: cell-based; conditions: MTT assay, 72 h, read-out: IC50, growth of tumor cell line
HL-60 xenografts = HL-60 xenografts in nude mice; type: in vivo; conditions: HL-60 xenograft nude mice
Procedure: as §1, §2

[3] = system: human leukemia cell line K562; assay: MTT cell growth inhibition, K562; type: cell-based; conditions: K562, MTT assay, 72 h; read-out: IC50, growth of tumor cell line
Text: as §3, §4

[4] = system: human umbilical vein endothelial cells HUVEC; assay: MTT cytotoxicity on normal cells, HUVEC; conditions: read-out: IC50, cytotoxicity on normal cell line; HUVEC, MTT assay
Procedure: (§5) Then, 100 μL of cells (cell concentration was 5×10^5/mL) were seeded into 96 wells plate. After 24 h incubation at 37° C. with 5% CO2, tested compounds were added (the control group without compound) for an additional 72 h incubation. After that, 30 μL of MTT [3-(4,5-Dimethylthiazol-2-yl)-2,5-diphenyltetrazolium bromide] solution (5 mg/mL) was added into each well and incubated for another 4 h at 37° C. and then the formazan crystals were solubilized with 100 μL DMSO. Finally, absorbance of each well was determined at 570 nm by a microplate reader (Thermo).
(§6) The standard curve was drew with compound concentrations as the abscissa and cell growth inhibition rates as the ordinate. The concentration required to inhibit cell growth by 50% (IC50) was calculated from survival curves.
(§7) Experimental method: In vitro cytotoxicities of vinca alkaloids, hydrazinolyzed vinca alkaloids and vinca alkaloid dipeptide derivatives on human normal liver cells LO2 and human umbilical vein endothelial cells HUVEC were detected according to the method of Example 2.

K562 xenografts = K562 xenografts in nude mice; type: in vivo; conditions: K562 xenograft nude mice
Procedure: as §1, §2

[5] = system: human colon cancer cell line LOVO; assay: MTT cell growth inhibition, LOVO; type: cell-based; conditions: LOVO (FAPα positive), MTT assay, 72 h; read-out: IC50, growth of tumor cell line
[6] = system: human prostatic cancer cell line DU145; assay: MTT cell growth inhibition, DU-145; type: cell-based; conditions: DU-145, MTT assay, 72 h; read-out: IC50, growth of tumor cell line
MDA-MB-231 xenografts = MDA-MB-231 xenografts in nude mice; type: in vivo, BALB/nu/nu mice; conditions: MDA-MB-231 xenograft nude mice
Procedure: as §1

[7] = system: doxorubicin-resistant human breast cancer cell lines MCF-7/ADR; assay: MTT cell growth inhibition, MCF-7/ADR; type: cell-based; conditions: MTT assay, 72 h, read-out: IC50, growth of tumor cell line
Text: as §3, §4

[8] = system: human normal liver cells LO2; assay: MTT cytotoxicity on normal cells, LO2; conditions: read-out: IC50, cytotoxicity on normal cell line; LO2, MTT assay
Procedure: as §5, §6, §7

LOVO xenografts = LOVO xenografts in nude mice; type: in vivo; conditions: LOVO xenograft nude mice
Procedure: as §1, §2

[9] = system: human cervical carcinoma cell line Hela; assay: MTT cell growth inhibition, Hela; type: cell-based; conditions: MTT assay, 72 h, read-out: IC50, growth of tumor cell line
[10] = system: human breast cancer cell line MDA-MB-231; assay: MTT cell growth inhibition, MDA-MB-231; type: cell-based; conditions: MDA-MB-231, MTT assay, 72 h; read-out: IC50, growth of tumor cell line
[11] = system: 5-FU-resistant human hepatocellular carcinoma cell line BEL-7402/5-Fu; assay: MTT cell growth inhibition, BEL-7402/5-Fu; type: cell-based; conditions: MTT assay, 72 h, read-out: IC50, growth of tumor cell line
[12] = system: human gastric carcinoma cell line NCI-N87; assay: MTT cell growth inhibition, NCI-N87; type: cell-based; conditions: NCI-N87, MTT assay, 72 h; read-out: IC50, growth of tumor cell line
Text: as §3, §4

[13] = system: human non-small-cell lung cancer cell line A549; assay: MTT cell growth inhibition, A549; type: cell-based; conditions: A549, MTT assay, 72 h; read-out: IC50, growth of tumor cell line
Text: as §3, §4

[14] = system: human nasopharyngeal carcinoma cell line CNE-2; assay: MTT cell growth inhibition, CNE-2; type: cell-based; conditions: CNE-2, MTT assay, 72 h; read-out: IC50, growth of tumor cell line
[15] = system: human liver cancer cell line HepG2; assay: MTT cell growth inhibition, HepG2; type: cell-based; conditions: HepG2, MTT assay, 72 h; read-out: IC50, growth of tumor cell line
Text: as §3, §4

[16] = system: human melanoma cell line A375; assay: MTT cell growth inhibition, A375; type: cell-based; conditions: A375, MTT assay, 72 h; read-out: IC50, growth of tumor cell line
[17] = system: human promyelocytic leukemia cell line HL-60; assay: MTT cell growth inhibition, HL-60; type: cell-based; conditions: HL-60, MTT assay, 72 h; read-out: IC50, growth of tumor cell line
[18] = system: human breast cancer cell line MCF-7; assay: MTT cell growth inhibition, MCF-7; type: cell-based; conditions: MCF-7, MTT assay, 72 h; read-out: IC50, growth of tumor cell line
[19] = system: human prostatic cancer cell line PC-3; assay: MTT cell growth inhibition, PC-3; type: cell-based; conditions: PC-3, MTT assay, 72 h; read-out: IC50, growth of tumor cell line
Text: as §3, §4

[20] = 1 mg/kg i.p. every two days, 8 administrations

CCC12C=CCN3CCC4(c5cc(C6(C(=O)OC)CC7CC(C(C)(F)F)CN(Cc8c6[nH]c6ccccc86)C7)c(OC)cc5N(C)C4C(O)(C(=O)NNC(=O)C4CCCN4C(=O)CNC(=O)OCc4ccccc4)C1O)C32 (stereo not shown) [BX-CCFN, Z-GP-NHNH-Vinflunine]
LD50 (median lethal dose) (Kunming mice): 15 mg/kg | IC50 [1]: 604 ± 17.9 nM | Anti-tumor rate (%) (HepG2 xenografts; 1 mg/kg): 88.24** % | Body weight (g) Post-dose (HepG2 xenografts; 1 mg/kg): 22.1 ± 1.2 g | Tumor weight (HepG2 xenografts; 1 mg/kg): 0.30 ± 0.17 g | Body weight (g) Pre-dose (HepG2 xenografts; before dosing): 21.9 ± 1.3 g | IC50 [2]: 459 ± 13.5 nM | Anti-tumor rate (%) (HL-60 xenografts; 1 mg/kg): 70.68** % | Body weight (g) Post-dose (HL-60 xenografts; 1 mg/kg): 18.6 ± 1.4 g | Tumor weight (HL-60 xenografts; 1 mg/kg): 0.61 ± 0.35 g | Body weight (g) Pre-dose (HL-60 xenografts; before dosing): 18.7 ± 1.4 g | IC50 [3]: 229 ± 6.6 nM | IC50 [4]: 270 ± 7.7 nM | Anti-tumor rate (%) (K562 xenografts; 1 mg/kg): 66.08** % | Body weight (g) Post-dose (K562 xenografts; 1 mg/kg): 23.0 ± 0.8 g | Tumor weight (K562 xenografts; 1 mg/kg): 0.57 ± 0.13 g | Body weight (g) Pre-dose (K562 xenografts; before dosing): 22.9 ± 1.3 g | IC50 [5]: 320 ± 8.51 nM | IC50 [6]: 289 ± 28.8 nM | Anti-tumor rate (%) (MDA-MB-231 xenografts; [20]): 88.13** % | Body weight (g) Post-dose (MDA-MB-231 xenografts; [20]): 20.6 ± 1.6 g | Tumor weight (MDA-MB-231 xenografts; [20]): 0.31 ± 0.11 g | Body weight (g) Pre-dose (MDA-MB-231 xenografts; before dosing): 20.2 ± 0.7 g | IC50 [7]: 908 ± 20.2 nM | IC50 [8]: 301 ± 14.3 nM | Anti-tumor rate (%) (LOVO xenografts; 1 mg/kg): 83.63** % | Body weight (g) Post-dose (LOVO xenografts; 1 mg/kg): 24.5 ± 1.5 g | Tumor weight (LOVO xenografts; 1 mg/kg): 0.47 ± 0.31 g | Body weight (g) Pre-dose (LOVO xenografts; before dosing): 23.6 ± 1.3 g | IC50 [9]: 430 ± 10.1 nM | IC50 [10]: 614 ± 9.29 nM | IC50 [11]: 390 ± 15.7 nM | IC50 [12]: 430 ± 10.4 nM | IC50 [13]: 335 ± 7.31 nM | IC50 [14]: 309 ± 5.78 nM | IC50 [15]: 299 ± 7.64 nM | IC50 [16]: 528 ± 34.8 nM | IC50 [17]: 726 ± 98.2 nM | IC50 [18]: 606 ± 11.5 nM | IC50 [19]: 317 ± 31.3 nM
